Assays:
DNA = experiment: Bleomycin-dependent DNA damage; type: biochemical; conditions: test sample 0.1 mg/mL, λ = 532 nm; mean of three replicates ± SD; ascorbic acid 0.24 mM
Excerpt: Bleomycin-dependent DNA damage. The prepared polycyclic thiadiazolopyrimidine-based compounds were examined through the bleomycin-dependant DNA damage, and the results were compared to that of ascorbic acid as a positive control. The obtained data reflected the ability of these derivatives to protect the DNA from damage. The capability of compounds 16a–b and 17a–b to manifest the best protective effect against DNA damage was indicated by the corresponding absorbance values ranging from 0.031 to 0.053 (Table 4)[35],[36].
Bleomycin-dependent DNA damage experiment: To a mixture of 0.5 mg / mL of DNA, 5 mM magnesium chloride, 50 mM ferric chloride and 0.05 mg / mL bleomycin sulfate was prepared. The test sample was prepared at a concentration of 0.1 mg / mL and added to the mixture. After incubation of the mixture for one hour at 37 °C, 0.05 mL of EDTA (0.1 M) was added to terminate the reaction. In the next step, 0.5 mL of TBA (1% w / v) and 0.5 mL of HCl (25% v / v) were added for colour development and the mixture was heated for 10 minutes at 80 °C. The mixture was centrifuged and the absorbance expressed, the amount of damage to the DNA was measured at λ = 532 nm. L-Ascorbic acid (0.24 mM) was used as a positive control.

[1] = tested on: Chromobacterium violaceum (ATCC 12472); experiment: Antiquorum-sensing assay (violacein pigment inhibition); type: cell-based; conditions: Chromobacterium violaceum, ATCC12472, 48 h, read-out: Diameter of quorum-sensing inhibition C. violaceum
Excerpt: The synthesized thiadiazolopyrimidine-based compounds were screened for their antiquorum-sensing (anti-QS) inhibition activity by the Chromobacterium violaceum (ATCC 12472) technique using catechin as the standard compound[28]–[30]. The QS technique of C. violaceum was remarked by the detection of violacein (violet pigment)[31],[32]. Meanwhile, the reactivity of the synthesized thiadiazolopyrimidine-containing derivatives as drugs depends on their efficiency to inhibit the liberation of violacein during the QS technique. The QS inhibition was determined by the following equation: QS inhibition (mm) = (r2 − r1), where r1 is the inhibition radius of the bacterial growth and r2 is the inhibition radius for growth as well as the release of the pigment.
The anti-QS inefficiency was evaluated using the previous technique mentioned in the literature.
The culture was prepared by growing Ch. violaceum ATCC 12472 in LB broth and incubated for 16–18 h in an orbital incubator running at 28°C and 150 rpm. The culture was then adjusted to 0.5 McFarland standard (ca. 1 × 10^6 CFU/mL). Ch. violaceum (50 µL) was inoculated into LB agar (50 mL), poured into plates, and solidified. Wells were made in LB agar medium using cork borer. The tested compounds were dissolved in DMSO 100% in Eppendorf tubes for final concentration of 5 mg/mL, and 50 µL of the test solution was applied into the wells. The positive control (catechin) was also added at the same concentration and volume to each plate. In addition, DMSO (control solvent) was added to each plate. […] Bacterial growth inhibition by the tested compounds was measured as radius (r1) in mm, while both growth and pigment inhibition was measured as radius (r2) in mm. The pigment inhibition (QS inhibition) was determined by subtracting bacterial growth inhibition (r1) from the total radius (r2); thus, QS inhibition = (r2 - r1) in mm.

[2] = MTT cytotoxicity assay on normal cells; type: cell-based; conditions: human, WI38 normal fibroblast cells
Experimental: The cytotoxicity of the prepared tri-and tetra-cyclic thiadiazolopyrimidine compounds were examined toward various cancer cell lines, such as liver and breast cancer (MCF-7), prostate cancer (PC3), laryngeal carcinoma (Hep-2), carcinoma (HepG2), and standard normal fibroblast cells (WI38) using the MTT assay[33] at the National Research Centre (Egypt). The cytotoxicity (Table 3) toward 50% inhibition of the cell viability (IC50 values) was assessed using 5-fluorouracil (5-Fu) as the standard anticancer drug.
The synthesized compounds were subjected to the MTT cytotoxicity assay on the basis of the cited literature.
MTT cytotoxicity assay: The technical method of MTT assay depends on the reduction of yellow 3-(4,5-methyl-2-thiazolyl)-2,5-diphenyl-2H-tetrazolium bromide (MTT) into purple formazan product, mainly by mitochondrial reductase activity inside the living cells. The cells used in cytotoxicity assay were cultured in RPMI 1640 medium supplemented with 10% fetal calf serum. Cells suspended in the medium (2×10^4 cells/mL) were plated in 96-well culture plates and incubated at 37 °C in a 5% CO2 incubator for 12 hours. The tested sample (2 μL) was added to the cells (2×10^4) in 96-well plates and cultured at 37 °C for 3 days. The cultured cells were mixed with 20 μL of MTT solution and incubated for 4 hours at 37 °C. The supernatant was carefully removed from each well, the formazan crystals were dissolved after addition of DMSO (100 μL) for each well to form the cellular reduction of MTT. After mixing with a mechanical plate mixer, the absorbance of each well was measured by a microplate reader using a test wavelength of 570 nm. The results were expressed as the IC50 values, which inducing 50% inhibition of cell growth of the treated cells when compared to the growth of control cells.

| Structure (SMILES) | Absorbance (bleomycin-dependent DNA damage) (DNA) | zone of inhibition at 5000 µg/mL [1] [mm] | IC50 at 3 days [2] [µM] |
| --- | --- | --- | --- |
| Cc1cc2nc3c(c(N)n2n1)c(=O)nc1scnn13 [Compound 13, 6-Amino-9-methyl-5H-pyrazolo[1′,5′:1,2]pyrimido[5,4-e][1,3,4]thiadiazolo[3,2-a]pyrimidin-5-one] | 0.128 ± 0.11 | 5 | 44.4 ± 1.24 |
| CC(=O)C1=C(C)OC(N)=C2C(=O)N=C3SC=NN3C12 (stereo not drawn) [Compound 8a, 9-Acetyl-6-amino-8-methyl-5H,9aH-pyrano[3,4-e][1,3,4]thiadiazolo[3,2-a]pyrimidin-5-one] | 0.078 ± 0.13 | 3 | 27.5 ± 0.6 |
| Nc1c2c(=O)nc3scnn3c2nc2nncn12 [Compound 12, 6-Amino-5H-[1,2,4]triazolo[4′,3′:1,2]pyrimido[5,4-e][1,3,4]thiadiazolo[3,2-a]pyrimidin-5-one] | 0.107 ± 0.08 | 3 | 17.7 ± 0.71 |
| Cc1n[nH]c2c1C1C(=C(N)O2)C(=O)N=C2SC=NN21 (stereo not drawn) [Compound 10a, 6-Amino-10-methyl-8,10b-dihydro-5H-pyrazolo[4′,3′:5,6]pyrano[3,4-e][1,3,4]thiadiazolo[3,2-a]pyrimidin-5-one] | 0.098 ± 0.07 | 13 | 23.3 ± 0.6 |
| Cc1ccc(N=Nc2c(N)nn3c(N)c4c(=O)nc5scnn5c4nc23)cc1 [Compound 16a, 6,9-Diamino-10-(4-methylphenylazo)-5H-pyrazolo[1′,5′:1,2]pyrimido[5,4-e][1,3,4]thiadiazolo[3,2-a]pyrimidin-5-one] | 0.039 ± 0.07 | 9 | 60.1 ± 2.41 |
| Cc1ccc(N=Nc2c(O)nn3c(N)c4c(=O)nc5scnn5c4nc23)cc1 [Compound 17a, 6-Amino-9-hydroxy-10-(4-methylphenylazo)-5H-pyrazolo[1′,5′:1,2]pyrimido[5,4-e][1,3,4]thiadiazolo[3,2-a]pyrimidin-5-one] | 0.053 ± 0.05 | 11 | 57.9 ± 1.18 |
| N#Cc1c(N)nc(N)c2c(=O)nc3scnn3c12 [Compound 6, 6,8-Diamino-9-cyano-5-oxo-5H-pyrido[3,4-e][1,3,4]thiadiazolo[3,2-a]pyrimidine] | 0.135 ± 0.14 | < 2 | 14.1 ± 0.36 |
| N#Cc1cn2ncsc2nc1=O [Compound 3, 6-cyano-7-oxo-7H-[1,3,4]thiadiazolo[3,2-a]pyrimidine] | 0.281 ± 0.22 | < 2 | 7.82 ± 1.33 |
| COc1ccc(N=Nc2c(N)nn3c(N)c4c(=O)nc5scnn5c4nc23)cc1 [Compound 16b, 6,9-Diamino-10-(4-methoxyphenylazo)-5H-pyrazolo[1′,5′:1,2]pyrimido[5,4-e][1,3,4]thiadiazolo[3,2-a]pyrimidin-5-one] | 0.031 ± 0.04 | 12 | 62.3 ± 3.03 |
| CCOC(=O)c1c(N)nc(N)c2c(=O)nc3scnn3c12 [Compound 7, Ethyl 6,8-diamino-5-oxo-5H-pyrido[3,4-e][1,3,4]thiadiazolo[3,2-a]pyrimidine-9-carboxylate] | 0.132 ± 0.19 | < 2 | 43.8 ± 0.52 |
| N#CC1=C(c2ccccc2)OC(N)=C2C(=O)N=C3SC=NN3C12 (stereo not drawn) [Compound 9b, 6-Amino-9-cyano-5-oxo-8-phenyl-5H,9aH-pyrano[3,4-e][1,3,4]thiadiazolo[3,2-a]pyrimidine] | 0.083 ± 0.08 | 3 | 48.2 ± 1.47 |
| CC1=C(C(=O)c2ccccc2)C2C(=C(N)O1)C(=O)N=C1SC=NN12 (stereo not drawn) [Compound 8b, 6-Amino-9-benzoyl-8-methyl-5H,9aH-pyrano[3,4-e][1,3,4]thiadiazolo[3,2-a]pyrimidin-5-one] | 0.066 ± 0.05 | 12 | 42.8 ± 1.06 |
| Nc1c2c(=O)nc3scnn3c2nc2nnnn12 [Compound 11, 6-Amino-5H-[1,3,4]thiadiazolo[2′,3′:2,3]pyrimido[4,5-d]tetrazolo[1,5-a]pyrimidin-5-one] | 0.113 ± 0.16 | 5 | 20.2 ± 0.39 |
| COc1ccc(N=Nc2c(O)nn3c(N)c4c(=O)nc5scnn5c4nc23)cc1 [Compound 17b, 6-Amino-9-hydroxy-10-(4-methoxyphenylazo)-5H-pyrazolo[1′,5′:1,2]pyrimido[5,4-e][1,3,4]thiadiazolo[3,2-a]pyrimidin-5-one] | 0.042 ± 0.03 | 12 | 58.4 ± 2.29 |
| Cc1nn(-c2ccccc2)c2c1C1C(=C(N)O2)C(=O)N=C2SC=NN21 (stereo not drawn) [Compound 10b, 6-Amino-10-methyl-8-phenyl-8,10b-dihydro-5H-pyrazolo[4′,3′:5,6]pyrano[3,4-e][1,3,4]thiadiazolo[3,2-a]pyrimidin-5-one] | 0.119 ± 0.13 | 9 | 25.4 ± 0.62 |
| Nc1nn(-c2ccccc2)c2c1c(=O)nc1scnn12 [Compound 5, 3-Amino-1-phenylpyrazolo[4,3-e][1,3,4]thiadiazolo[3,2-a]pyrimidin-4(1H)-one] | 0.146 ± 0.16 | < 2 | 10.9 ± 0.83 |
| CC1=C(C#N)C2C(=C(N)O1)C(=O)N=C1SC=NN12 (stereo not drawn) [Compound 9a, 6-Amino-9-cyano-8-methyl-5-oxo-5H,9aH-pyrano[3,4-e][1,3,4]thiadiazolo[3,2-a]pyrimidine] | 0.064 ± 0.06 | 11 | 36.12 ± 0.28 |
| Nc1n[nH]c2c1c(=O)nc1scnn12 [Compound 4, 3-Aminopyrazolo[4,3-e][1,3,4]thiadiazolo[3,2-a]pyrimidin-4(1H)-one] | 0.165 ± 0.19 | < 2 | 9.35 ± 0.21 |
